According to patent US20090062223A1, “AMINO TRICYCLIC-NUCLEOSIDE COMPOUNDS, COMPOSITIONS, AND METHODS OF USE” (GENELABS TECHNOLOGIES, INC., priority 2007, published 2009):
In brackets after ≈: the same amount, converted by molar mass.

Columns and labels:
[1] = Chemical stability in acidic solution (acid stability); assay type: physicochemical; conditions: pH 4.5 chemical solution; pH 4.5, 37° C.; read-out: Acid Stability (T ½, mins @ pH 4.5)
Caco-2 cells = experiment: in vitro; assay type: in vitro ADME
Procedure: (§1) Caco-2 cells were maintained in Dulbecco's Modification of Eagle's Medium (DMEM) with sodium pyruvate, Glutmax supplemented with 1% Pen/Strep, 1% NEAA and 10% fetal bovine serum in an incubator set at 37° C., 90% humidity and 5% CO2. Caco-2 cells between passage 43 and 61 were grown to confluence over at least 21-days on 24 well PET (polyethylene-terephthalate) plates (BD Biosciences). Experiments were run using a new HBSS donor buffer from Invitrogen containing additional 10 mM HEPES, 15 mM Glucose with pH adjusted to pH 6.5. The receiver well used HBSS buffer supplemented with 1% BSA and the pH adjusted to pH 7.4. After an initial equilibration with transport buffer, TEER values were read to test membrane integrity. The experiment was started by the addition of buffers containing test compounds and 100 μl of solution is taken at 1 and 2 hrs from the receiver compartment. Removed buffer was replaced with fresh buffer and a correction was applied to all calculations for the removed material. Each compound was tested in 2 separate replicate wells for each condition. All samples were immediately collected into 400 μl 100% acetonitrile acid to precipitate protein and stabilize test compounds. Cells were dosed on the apical or basolateral side to determine forward (A to B) and reverse (B to A) permeability. Permeability through a cell free trans-well was also determined as a measure of cellular permeability through the membrane and non-specific binding. To test for non-specific binding and compound instability the total amount of drug was quantitated at the end of the experiment and compared to the material present in the original dosing solution as a percent recovery. Samples were analyzed by LC/MS/MS.
(§2) The apparent permeability, Papp, and % recovery were calculated as follows: […]
(§3) where, • dR/dt is the slope of the cumulative concentration in the receiver compartment versus time in μM/s based on receiver concentrations measured at 60 and 120 minute. • Vr and Vd is the volume in the receiver and donor compartment in cm^3, respectively. • A is the area of the cell monolayer (0.33 cm^2). • D0 and D120 is the measured donor concentration at the beginning and end of the experiment, respectively. • R120 is the receiver concentration at the end of the experiment (120 minutes).
(§4) The apparent permeability for certain compounds were determined using the above procedure.

[2] = Solubility (shaking flask); assay type: physicochemical; conditions: phosphate buffer solution (PBS), aqueous buffer, thermodynamic from solid; PBS; 37° C. for 24 hours
Procedure: The solubility for certain compounds were determined using the following protocol and procedure. 1) The solution, sterile water or phosphate buffer solution (PBS), was added to the test compound tube to make the final concentration 10 mg/mL. 2) The sample tube was vortexed and incubated at 37° C. for 24 hours. During the incubation period, the sample tube was vortexed several times. 3) After the incubation, vortex the tube and centrifuge the tube at 13,000 rpm for 10 mins using an Eppendorf Centrifuge Model 5415C. If the solution was still cloudy, centrifuge it for longer until a clear supernatant was achieved. 4) The supernatant was diluted to 1×, 10× and 100× in 50% ACN in water. 5) A six point standard curve was prepared separately to make the final concentrations of 1 μg/mL, 5 μg/mL, 10 μg/mL, 20 μg/mL, 40 μg/mL and 60 μg/mL. 6) Samples were quantified using an HPLC with UV detector. 7) From the three concentrations of 1×, 10× and 100× supernatant, choose the value, which was fallen into the standard curve range (1 ug/mL-60 ug/mL), as the final result. If all the results were out of the curve range, adjust using a dilution factor to make the value within the curve range.

in vitro = in vitro ADME; conditions: human, Caco-2
Procedure: as §1, §2, §3, §4

Structure (SMILES) | half-life at 1 µg/mL [1] [min] | Permeability Papp (A to B) × 10^−6 cm/s (Caco-2 A-B) (Caco-2 cells) | solubility at 24 h [2] [µg/mL] | Papp A→B at 2 h (in vitro) [×10⁻⁶ cm/s]
CCCCCOC(=O)OC[C@H]1O[C@@H](n2cc3c4c(ncnc42)NC(=O)C=C3N)[C@@](C)(O)[C@@H]1O (stereo in doubt) [Compound 103, Carbonic acid 5-(9-amino-7-oxo-6,7-dihydro-2,3,5,6-tetraaza-benzo[cd]azulen-2-yl)-3,4-dihydroxy-4-methyl-tetrahydro-furan-2-ylmethylester pentyl ester] | ≤ 30 | low |  | 
CC(C)C(=O)OCOC(=O)NC1=CC(=O)Nc2ncnc3c2c1cn3[C@@H]1O[C@H](CO)[C@@H](O)[C@]1(C)O (stereo in doubt) [Compound 109, Isobutyric acid 2-(3,4-dihydroxy-5-hydroxymethyl-3-methyl-tetrahydro-furan-2-yl)-7-oxo-6,7-dihydro-2H-2,3,5,6-tetraaza-benzo[cd]azulen-9-ylcarbamoyloxymethyl ester] | > 120 | low | 215 (≈ 437 µM) | 
CC(=O)OC[C@H]1O[C@@H](n2cc3c4c(ncnc42)NC(=O)C=C3N)C(C)(OC(C)=O)[C@@H]1OC(C)=O (stereo in doubt) [Compound 117, Acetic acid 4-acetoxy-2-acetoxymethyl-5-(9-amino-7-oxo-6,7-dihydro-2,3,5,6-tetraaza-benzo[cd]azulen-2-yl)-4-methyl-tetrahydro-furan-3-yl ester] |  |  | 510 (≈ 1080 µM) | > 1
CC(C)C(=O)OC[C@H]1O[C@@H](n2cc3c4c(ncnc42)NC(=O)C=C3N)[C@@](C)(O)[C@@H]1OC(=O)C(C)C (stereo in doubt) [Compound 134, Isobutyric acid 5-(9-amino-7-oxo-6,7-dihydro-2,3,5,6-tetraaza-benzo[cd]azulen-2-yl)-4-hydroxy-3-isobutyryloxy-4-methyl-tetrahydro-furan-2-ylmethyl ester] | < 30 | low | 67 (≈ 137 µM) | 
CC(=O)OC[C@H]1O[C@@H](n2cc3c4c(ncnc42)NC(=O)C=C3N)[C@@](C)(O)[C@@H]1OC(C)=O (stereo in doubt) [Compound 135, Acetic acid 3-acetoxy-5-(9-amino-7-oxo-6,7-dihydro-2,3,5,6-tetraaza-benzo[cd]azulen-2-yl)-4-hydroxy-4-methyl-tetrahydro-furan-2-ylmethylester] | < 15 | medium | 7280 (≈ 16900 µM) | 
CC(C)C(=O)OC[C@H]1O[C@@H](n2cc3c4c(ncnc42)NC(=O)C=C3N)[C@@]2(C)OC(=O)O[C@H]12 [Compound 106, Isobutyric acid 6-(9-amino-7-oxo-6,7-dihydro-2,3,5,6-tetraaza-benzo[cd]azulen-2-yl)-6a-methyl-2-oxo-tetrahydro-furo[3,4-d][1,3]dioxol-4-ylmethyl ester] | < 30 | high | 65 (≈ 147 µM) | 
CC(=O)OC[C@H]1O[C@@H](n2cc3c4c(ncnc42)NC(=O)C=C3N)[C@@]2(C)OC(=O)O[C@H]12 [Compound 108, Acetic acid 6-(9-amino-7-oxo-6,7-dihydro-2,3,5,6-tetraaza-benzo[cd]azulen-2-yl)-6a-methyl-2-oxo-tetrahydro-furo[3,4-d][1,3]dioxol-4-ylmethyl ester] | < 15 | medium | 28 (≈ 67.4 µM) | 
CCCCCC(=O)O[C@@H]1[C@@H](CO)O[C@@H](n2cc3c4c(ncnc42)NC(=O)C=C3N)[C@]1(C)O [Compound 113, Hexanoic acid 5-(9-amino-7-oxo-6,7-dihydro-2,3,5,6-tetraaza-benzo[cd]azulen-2-yl)-4-hydroxy-2-hydroxymethyl-4-methyl-tetrahydro-furan-3-yl ester] | < 30 | medium | 67 (≈ 150 µM) | 
CC(=O)N[C@H](C(=O)OC[C@H]1O[C@@H](n2cc3c4c(ncnc42)NC(=O)C=C3N)C(C)(O)[C@@H]1O)C(C)C (stereo partly shown) [Compound 124, 2-Acetylamino-3-methyl-butyric acid5-(9-amino-7-oxo-6,7-dihydro-2,3,5,6-tetraaza-benzo[cd]azulen-2-yl)-3,4-dihydroxy-4-methyl-tetrahydro-furan-2-ylmethyl ester] | < 30 | low | 6250 (≈ 12800 µM) | 
CCCCCOC(=O)NC1=CC(=O)Nc2ncnc3c2c1cn3[C@@H]1O[C@H](CO)[C@@H](O)[C@@]1(C)O [Compound 138, [2-(3,4-Dihydroxy-5-hydroxymethyl-3-methyl-tetrahydro-furan-2-yl)-7-oxo-6,7-dihydro-2H-2,3,5,6-tetraaza-benzo[cd]azulen-9-yl]-carbamic acidpentyl ester] | > 120 | medium | 32 (≈ 69.3 µM) | 

Further lines, with some results ahead:

half-life at 1 µg/mL [1] [min] | Permeability Papp (A to B) × 10^−6 cm/s (Caco-2 A-B) (Caco-2 cells) | solubility at 24 h [2] [µg/mL] | Structure (SMILES) | Papp A→B at 2 h (in vitro) [×10⁻⁶ cm/s]
< 30 | high | 137 (≈ 308 µM) | CCCCCC(=O)OC[C@H]1O[C@@H](n2cc3c4c(ncnc42)NC(=O)C=C3N)[C@@](C)(O)[C@@H]1O (stereo in doubt) [Compound 101, Hexanoic acid 5-(9-amino-7-oxo-6,7-dihydro-2,3,5,6-tetraaza-benzo[cd]azulen-2-yl)-3,4-dihydroxy-4-methyl-tetrahydro-furan-2-ylmethylester] | 
< 30 | high | 9060 (≈ 21700 µM) | CC(C)C(=O)OC[C@H]1O[C@@H](n2cc3c4c(ncnc42)NC(=O)C=C3N)[C@@](C)(O)[C@@H]1O (stereo in doubt) [Compound 105, Isobutyric acid 5-(9-amino-7-oxo-6,7-dihydro-2,3,5,6-tetraaza-benzo[cd]azulen-2-yl)-3,4-dihydroxy-4-methyl-tetrahydro-furan-2-ylmethylester] | 
< 30 | high | 134 (≈ 321 µM) | CC(C)C(=O)O[C@@H]1[C@@H](CO)O[C@@H](n2cc3c4c(ncnc42)NC(=O)C=C3N)C1(C)O (stereo in doubt) [Compound 115, Isobutyric acid 5-(9-amino-7-oxo-6,7-dihydro-2,3,5,6-tetraaza-benzo[cd]azulen-2-yl)-4-hydroxy-2-hydroxymethyl-4-methyl-tetrahydro-furan-3-yl ester] | 
< 15 | low | 11 (≈ 31.7 µM) | CC1(O)C(O)C(CO)OC1n1cc2c3c(ncnc31)NC(=O)C=C2N (stereo not shown) [Compound 100, 9-amino-2-(3,4-dihydroxy-5-hydroxymethyl-3-methyl-tetrahydro-furan-2-yl)-2,6-dihydro-2,3,5,6-tetraaza-benzo[cd]azulen-7-one, reference compound] | 
< 30 | low | 202 (≈ 541 µM) | CC12OC(=O)O[C@@H]1[C@@H](CO)O[C@H]2n1cc2c3c(ncnc31)NC(=O)C=C2N (stereo partly shown) [Compound 116, 9-Amino-2-(6-hydroxymethyl-3a-methyl-2-oxo-tetrahydro-furo[3,4-d][1,3]dioxol-4-yl)-2,6-dihydro-2,3,5,6-tetraaza-benzo[cd]azulen-7-one] | 
